Results reported in patent US8293909B2, “Compounds for the treatment of hepatitis C” (Bristol-Myers Squibb Company, priority 2008, dated 2012).

Experiments:
[1] = target: T1, HCV NS5B RdRp genotype 1b (Hepatitis C virus genotype 1b, UniProt Q9WMX2); assay: HCV NS5B RdRp enzyme assay (standard / modified); type: biochemical; conditions: HCV NS5B genotype 1b
T1 construct: The protein was expressed with an 18 amino acid C-terminal truncation to enhance the solubility; made in house; host or cells: E. coli BL21(DE3), pET21a vector
T1 sequence (Q9WMX2 2420-2992): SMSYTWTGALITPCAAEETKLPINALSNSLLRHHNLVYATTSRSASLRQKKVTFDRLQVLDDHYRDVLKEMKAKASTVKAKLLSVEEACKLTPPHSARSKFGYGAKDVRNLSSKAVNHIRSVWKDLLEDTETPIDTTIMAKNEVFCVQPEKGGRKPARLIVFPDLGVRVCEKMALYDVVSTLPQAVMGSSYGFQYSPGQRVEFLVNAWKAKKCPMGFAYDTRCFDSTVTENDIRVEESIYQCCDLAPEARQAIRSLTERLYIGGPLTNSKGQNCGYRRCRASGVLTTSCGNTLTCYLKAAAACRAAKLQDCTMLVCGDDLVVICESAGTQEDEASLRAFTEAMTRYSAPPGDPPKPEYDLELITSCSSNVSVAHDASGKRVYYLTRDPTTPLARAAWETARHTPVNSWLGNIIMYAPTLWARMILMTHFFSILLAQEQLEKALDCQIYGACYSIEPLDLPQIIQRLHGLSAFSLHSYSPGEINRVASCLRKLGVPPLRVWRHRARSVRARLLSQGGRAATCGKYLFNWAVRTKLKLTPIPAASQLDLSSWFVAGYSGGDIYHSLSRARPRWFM
In short: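 Genotype 1b NS5B with an 18-aa C-terminal truncation, expressed in E. coli, was tested by SPA incorporation of 3H-UTP (0.29 μM) on polyA/biotin-oligo-dT12. Standard assay: 28 nM enzyme, 6 nM template, 180 nM primer, 60 min at 30 °C, pH 7.5, 2% DMSO. Modified assay: 14 nM enzyme added to compound first, 0.2 nM template, 20 nM bead-precaptured primer, 4 h at 30 °C. IC50 used seven inhibitor concentrations.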

[2] = system: HCV replicon in HUH-7 cells; assay: HCV replicon luciferase reporter assay, 384 well plate protocol; type: cell-based; conditions: Hepatitis C virus, Table 2
Procedure: (§1) The HCV replicon luciferase assay was developed to monitor the inhibitory effects of compounds described in the disclosure on HCV viral replication. Utilization of a replicon luciferase reporter assay was first described by Krieger et al (Krieger N, Lohmann V, and Bartenschlager R, J. Virol. 75(10):4614-4624 (2001)). HUH-7 cells, constitutively expressing the HCV replicon, were grown in Dulbecco's Modified Eagle Media (DMEM) (Gibco-BRL) containing 10% Fetal calf serum (FCS) (Sigma) and 1 mg/ml G418 (Gibco-BRL). Compounds were serially diluted 3 folds in DMSO for a twenty-point titration and subsequently transferred to sterile 384-well tissue-culture treated plates (Corning cat #3571). The plates were then seeded with 50 μl of cells at a density of 3.0×10^3 cells/well in DMEM containing 4% FCS (final DMSO concentration at 0.5%). After 3 days incubation at 37° C., cells were analyzed for Renilla Luciferase activity using the EnduRen as substrate (Promega cat #E6485). The EnduRen substrate was diluted in DMEM and then added to the plates to a final concentration of 7.5 μM. The plates were incubated for 2 hrs at 37° C. and then read immediately for 30 seconds with Viewlux Imager (PerkinElmer) using a luminescence program. To assess cytotoxicity of compounds, CC50 values were generated by multiplexing the EnduRen-containing plates with Cell Titer-Blue (Promega, cat #G8082). 3 μl of Cell-Titer Blue was added to each well and incubated for 8 hrs at 37° C. The fluorescence signal from each well was read, with an excitation wavelength at 525/10 nm and an emission wavelength of 598/10 nm, using the Viewlux Imager.

[3] = system: 1 a replicon; assay: HCV replicon luciferase reporter assay, 384 plate protocol, 1a replicon; type: cell-based; conditions: Hepatitis C virus; Table 1; *384 plate protocol and a 1 a replicon
Procedure: as §1, with “To assess cytotoxicity of compounds, CC50 values were generated by multiplexing the EnduRen-containing plates with Cell Titer-Blue (Promega, cat #G8082). 3 μl of Cell-Titer Blue was added to each well and incubated for 8 hrs at 37° C.” left out

[4] = system: HCV; conditions: cited from earlier work
[5] = system: HCV replicon cells; assay: HCV replicon assay (FRET or luciferase readout); type: cell-based; conditions: Hepatitis C virus
In short: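 Trypsinized replicon cells were seeded with compound titrations and incubated at 37 °C for various times. Alamar blue was added to gauge toxicity. Plates were then rinsed and either lysed with FRET peptide reagent for kinetic fluorescence reading or switched to phenol red-free DMEM for luciferase measurement.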

Row | Compound | IC50 ([1]; Table 1) [nM] | EC50 ([5]; Table 1) [nM] | also measured
1 | CNC(=O)c1c(-c2ccc(F)cc2)oc2ncc(-c3cc(C(=O)NC4(c5ccccn5)CC4)ccc3C)cc12 [drawing 186] | – | – | IC50 ([1]; Table 2): 4.65 nM; EC50 [2]: 2.04 nM
2 | CNC(=O)c1c(-c2ccc(F)cc2)nc2ccc(-c3cc(C(=O)NC4(c5ccccn5)CC4)c(OC)cc3Cl)cn12 [drawing 164] | – | – | EC50 [3]: 2 to 250 nM
3 | alpha-interferon and ribavirin | – | – | sustained efficacy ([4]; combination therapy): 40 % of patients
4 | CNC(=O)c1c(-c2ccc(F)cc2)nn2cc(N(CCO)S(C)(=O)=O)c(-c3cc(C(=O)NCC(C)C)ccc3Cl)cc12 | 2 to 250 | 250 to 1000 | –
5 | CNC(=O)c1c(-c2ccc(F)cc2)oc2ncc(-c3cc(C(=O)NC4(c5ccccn5)CC4)ccc3Cl)cc12 [drawing 113] | 2 to 250 | 2 to 250 | –
6 | CNC(=O)c1c(-c2ccc(F)cc2)nn2ccc(-c3cc(C(=O)NC4(c5ccccn5)CC4)ccc3C)cc12 [drawing 179] | – | – | IC50 ([1]; Table 2): 5.15 nM; EC50 ([5]; Table 2): 10 nM
7 | CNC(=O)c1c(-c2ccc(F)cc2)oc2ccc(-c3cccc(C(=O)NC4(c5ccccn5)CC4)c3)nc12 | 1000 to 10000 | 250 to 1000 | –
8 | CNC(=O)c1c(-c2ccc(F)cc2)nc2ccc(-c3cccc(C(=O)O)c3)cn12 | > 10000 | > 10000 | –
9 | CNC(=O)c1c(-c2ccc(F)cc2)nn2ccc(OC)cc12 | > 10000 | > 10000 | –
10 | CNC(=O)c1c(-c2ccc(F)cc2)nn2ccc(-c3cccc(C(=O)NC4(c5ccccc5)CCC4)c3)cc12 | 2 to 250 | 2 to 250 | –
11 | CNC(=O)c1c(-c2ccc(F)cc2)sc2ccc(-c3cccc(C(=O)NC(C)(C)C)c3)cc12 [drawing 85] | > 4170 | 1000 to 10000 | –
12 | CNC(=O)c1c(-c2ccccc2)nn2cc(-c3ccccc3OC)ccc12 | 1000 to 10000 | 1000 to 10000 | –
13 | CNC(=O)c1c2cc(-c3cc(C(=O)NC(C)(C)c4ccccc4)ccc3Cl)ccc2nn1-c1ccc(F)cc1 | 2 to 250 | 2 to 250 | –
14 | CNC(=O)c1c(-c2ccccc2)nn2cc(-c3ccccc3C)ccc12 | > 10000 | > 10000 | –
15 | CNC(=O)c1c(-c2ccc(F)cc2)nn2ccc(-c3cc(C(=O)NC4(c5cc(C)on5)CC4)c(OC)cc3C)c(F)c12 | 2 to 250 | 2 to 250 | –
16 | CNC(=O)c1c(-c2ccc(F)cc2)nn2ccc(-c3cc(C(=O)NC4(c5ccccn5)CC4)ccc3C)c(F)c12 [drawing 177] | – | – | IC50 ([1]; Table 2): 5 nM; EC50 ([5]; Table 2): 7.15 nM
17 | CNC(=O)c1c(-c2ccc(F)cc2)nn2ccc(N)cc12 | > 10000 | > 10000 | –
18 | CNC(=O)c1c(-c2ccc(F)cc2)nn2cc(N(CCO)S(C)(=O)=O)c(OC)cc12 [drawing 184] | – | – | IC50 ([1]; Table 2): 2920 nM; EC50 ([5]; Table 2): 3990 nM
19 | CNC(=O)c1c(-c2ccc(F)cc2)nn2ccc(-c3cc(C(=O)NC4(c5ccccc5)CC4)ccc3C)c(F)c12 [drawing 127] | 2 to 250 | 2 to 250 | –
20 | CNC(=O)c1c(-c2ccc(F)cc2)sc2ccc(-c3cccc(C(=O)NC(C)(C)C)c3)cc12 [drawing 183] | – | – | IC50 ([1]; Table 2): > 4170 nM; EC50 ([5]; Table 2): 1860 nM
21 | CNC(=O)c1c(-c2ccc(F)cc2)oc2ncc(-c3cccc(C(=O)NC4(c5ccccc5)CC4)c3)cc12 | 2 to 250 | 2 to 250 | –
22 | CNC(=O)c1c(-c2ccc(F)cc2)nn2cc(-c3cccc(OC)c3)ccc12 | > 10000 | > 10000 | –
23 | CNC(=O)c1c(-c2ccc(F)cc2)[nH]c2ccc(-c3cccc(C(=O)NC(C)(C)c4ccccc4)c3)cc12 [drawing 181] | – | – | IC50 ([1]; Table 2): 720 nM; EC50 ([5]; Table 2): 460 nM
24 | CNC(=O)c1c(-c2ccc(F)cc2)oc2ncc(-c3cc(C(=O)NC4(c5ncccn5)CC4)ccc3C)cc12 | 2 to 250 | 2 to 250 | –
25 | CNC(=O)c1c(-c2ccc(F)cc2)nn2ccc(-c3cc(C(=O)NC4(C5CCCCC5)CC4)c(OC)cc3C)c(F)c12 | 2 to 250 | 2 to 250 | –

Row | Compound | IC50 ([1]; Table 1) [nM] | EC50 ([5]; Table 1) [nM] | also measured
26 | CNC(=O)c1c(-c2ccc(F)cc2)nn2ccc(-c3cc(C(=O)NC4(c5ccccn5)CC4)c(OC)cc3C)c(F)c12 [drawing 135] | 2 to 250 | 2 to 250 | –
27 | CNC(=O)c1c(-c2ccc(F)cc2)nc2ccc(-c3ccc(-c4ccccc4Cl)c(C(=O)NCC(C)C)c3)cn12 [drawing 163] | – | – | EC50 [3]: 250 to 1000 nM
28 | CNC(=O)c1c(-c2ccc(F)cc2)nn2ccc(NS(=O)(=O)c3ccc(OC(F)(F)F)cc3)cc12 | > 10000 | > 10000 | –
29 | CCN(c1cn2nc(-c3ccc(F)cc3)c(C(=O)NC)c2cc1-c1cc(C(=O)NC2(c3ccccn3)CC2)ccc1C)S(C)(=O)=O | 2 to 250 | 2 to 250 | –
30 | CNC(=O)c1c(-c2ccc(F)cc2)nn2cc(N(CCO)S(C)(=O)=O)c(-c3cccc(C(=O)NC4(c5ccccn5)CC4)c3)cc12 [drawing 182] | – | – | IC50 ([1]; Table 2): 60 nM; EC50 ([5]; Table 2): 1560 nM
31 | CNC(=O)c1c(-c2ccc(F)cc2)nn2ccc(-c3cccc(C(=O)NC4(c5ccccc5)CC4)c3)cc12 | 2 to 250 | 2 to 250 | –
32 | CNC(=O)c1c(-c2ccc(F)cc2)nn2ccc(-c3cc(C(=O)NC4(c5ccccc5F)CC4)c(OC)cc3C)c(F)c12 | 2 to 250 | 250 to 1000 | –
33 | CNC(=O)c1c(-c2ccc(F)cc2)nn2ccc(-c3cc(C(=O)NC4(C)CC4)c(OC)cc3C)c(F)c12 | 2 to 250 | 2 to 250 | –
34 | CNC(=O)c1c(-c2ccc(F)cc2)oc2ncc(-c3cccc(C(=O)NC(C)(C)C)c3)cc12 | 2 to 250 | 2 to 250 | –
35 | CNC(=O)c1c(-c2ccc(F)cc2)nn2ccc(-c3cc(C(=O)NC4(c5ccccc5)CC4)ccc3C)c(F)c12 [drawing 185] | – | – | EC50 [2]: 0.85 nM
36 | CNC(=O)c1c(-c2ccc(F)cc2)nn2cc(N)ccc12 | > 10000 | > 10000 | –
37 | CNC(=O)c1c(-c2ccc(F)cc2)nn2ccc(-c3cc(C(=O)NC4(c5ccccn5)CC4)ccc3C)cc12 [drawing 88] | 2 to 250 | 2 to 250 | –
38 | CNC(=O)c1c(-c2ccc(F)cc2)nc2ccc(-c3cccc(C(=O)NC4(c5ccccc5)CC4)c3)cn12 | 2 to 250 | 2 to 250 | –
39 | CNC(=O)c1c(-c2ccc(F)cc2)oc2cc(N(CCO)S(C)(=O)=O)c(C3CC3)cc12 [HCV-796] | – | – | hepatic toxicity ([4]; extended dosing of the combination regimens with interferon and ribavirin): hepatic toxicity observed during extended dosing of the combination regimens; HCV RNA levels in patients ([4]; patients): showed an ability to reduce HCV RNA levels in patients
40 | CNC(=O)c1c2cc(-c3cccc(C(=O)NC(C)(C)C)c3)ccc2nn1-c1ccc(F)cc1 | 1000 to 10000 | 1000 to 10000 | –
41 | CNC(=O)c1c(-c2ccc(F)cc2)nn2ccc(-c3cc(C(=O)NC4(c5ncccn5)CC4)ccc3C)c(F)c12 | 2 to 250 | 2 to 250 | –
42 | CNC(=O)c1c(-c2ccc(F)cc2)nn2ccc(-c3cc(C(=O)NC4(c5cccc(F)c5)CC4)c(OC)cc3C)c(F)c12 | 2 to 250 | 2 to 250 | –
43 | pegylated alpha-interferon | – | – | clinical efficacy compared with unmodified alpha-interferon ([4]; monotherapy): superior to unmodified alpha-interferon as monotherapy
44 | CNC(=O)c1c(-c2ccc(F)cc2)nc2ccc(C3CC3C(=O)NC3(c4ccccn4)CC3)cn12 (stereo not shown) [drawing 159] | > 10000 | > 10000 | –
45 | CNC(=O)c1c(-c2ccc(F)cc2)n(C)c2ccc(-c3cccc(C(=O)NC(C)(C)c4ccccc4)c3)cc12 | > 10000 | > 10000 | –
46 | CNC(=O)c1c(-c2ccc(F)cc2)oc2ncc(-c3cc(C(=O)NC4(c5ccccn5)CC4)ccc3Cl)cc12 [drawing 187] | – | – | EC50 [2]: 1.5 nM
47 | CNC(=O)c1c(-c2ccc(F)cc2)nn2cc(N(CCO)S(C)(=O)=O)ccc12 | > 10000 | > 10000 | –
48 | CNC(=O)c1c(-c2ccc(F)cc2)oc2cnc(-c3cccc(C(=O)NC4(c5ccccn5)CC4)c3)cc12 | 2 to 250 | 1000 to 10000 | –
49 | CNC(=O)c1c(-c2ccc(F)cc2)nn2ccc(-c3cc(C(=O)NC4(c5ccccc5)CC4)c(OC)cc3C)c(F)c12 [drawing 174] | – | – | IC50 ([1]; Table 2): 10 nM; EC50 ([5]; Table 2): 3.92 nM
50 | CNC(=O)c1c(-c2ccc(F)cc2)sc2ccc(-c3cccc(C(=O)NC(C)(C)c4ccccc4)c3)cc12 | 2 to 250 | 250 to 1000 | –
